“Also recorded” adds a separate entry of the source. Counter-ions that a name gives are not always drawn.
Test system: Grover's disease
Test: Treatment of patients with Grover's disease (clinical study)
Assay type: in vivo, human
Conditions: three patients with Grover's disease; diet (no seafood) and chelation with Succimer 200-300 mg TID x 1-2 months
Source text: Fourteen patients with Grover's disease (ages 55-85) were randomly selected from a private dermatology practice. All patients were diagnosed using the following criteria: (1) complaints of pruritic eruption of the chest, abdomen or back; (2) physical exam showing discreet small (<2 mm) scattered erythematous scaly or crusted papules of chest, abdomen or back; (3) biopsy showing a superficial perivascular infiltrate of lymphocytes, suprabasal clefts and acantholytic cells. All patients gave verbal consent for a shave biopsy of a skin lesion and a blood test for mercury. Two were women and twelve were men.
Of the fourteen patients with Grover's disease, all had measurable blood mercury (mean—10 u/Liter). All patients complained of pruritus and were aware of skin lesions. All fourteen patients were treated with topical steroids without improvement.

How did the “Effect of treatment on the cutaneous eruption of Grover's disease” value turn out when O=C(O)[C@@H](S)[C@@H](S)C(=O)O [Succimer, 2,3-dimercaptosuccinic acid or salt thereof] was run?
The value was “clearing of the eruption; also recorded: beneficial effect”.

Reference: US20060172951A1, “Age related macular degeneration and cutaneous signs of mercury toxicity” (priority 2005, published 2006)
